In patent US20210045385A1, “PYRIDAZINONE-SUBSTITUTED KETOXIMES AS HERBICIDES” (FMC Corporation, priority 2018, published 2021):

Key:
Type in all cases: in vivo
[1] = test system: sedge, umbrella (small-flower umbrella sedge, Cyperus difformis); assay: Test B flooded paddy test, visual plant response rating; details: 250 g ai/ha, Flood, applied to paddy water, 2-leaf stage, evaluated after 13 to 15 days
Procedure, shortened: (§1)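 Compounds added straight into paddy water of pots flooded to 3 cm, with 2-leaf-stage plants of the four species; water level held throughout.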

[2] = test system: barnyardgrass (Echinochloa crus-galli); assay: as above; details: 250 g ai/ha, Flood, applied to paddy water, 2-leaf stage, evaluated after 13 to 15 days
Procedure, shortened: as §1

[3] = test system: rice (Oryza sativa); assay: as above; details: 250 g ai/ha, Flood, applied to paddy water, 2-leaf stage, evaluated after 13 to 15 days
Procedure, shortened: as §1

[4] = test system: ducksalad (Heteranhera limosa); assay: as above; details: 250 g ai/ha, Flood, applied to paddy water, 2-leaf stage, evaluated after 13 to 15 days
Procedure, shortened: as §1

[5] = test system: pigweed (Amaranthus retroflexus); assay: Test A preemergence, visual plant response rating; details: for Pigweed plant response rating: 125 g ai/ha, preemergence, 0 to 100 scale, 0 no effect, 100 complete control; for Pigweed plant response rating (0 to 100 scale): 500 g ai/ha Preemergence, approx. 10 days
Procedure, shortened: (§2)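 Ratings use a 0–100 visual scale (100 = complete control) against untreated controls, scored about 10 days after greenhouse treatment. Test chemicals were formulated in surfactant-containing non-phytotoxic solvent and applied either as soil spray after planting (preemergence) or onto one- to two-leaf, 2–10 cm plants (postemergence).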

[6] = test system: kochia (Kochia scoparia); assay: Test A preemergence, visual plant response rating; details: for Kochia plant response rating: 125 g ai/ha, preemergence, 0 to 100 scale, 0 no effect, 100 complete control; for Kochia plant response rating (0 to 100 scale): 500 g ai/ha Preemergence, approx. 10 days
Procedure, shortened: as §2

[7] = test system: ragweed (common ragweed, Ambrosia elatior); assay: Test A preemergence, visual plant response rating; details: for Ragweed plant response rating: 125 g ai/ha, preemergence, 0 to 100 scale, 0 no effect, 100 complete control; for Ragweed plant response rating (0 to 100 scale): 500 g ai/ha Preemergence, approx. 10 days
Procedure, shortened: as §2

[8] = test system: barnyardgrass (Echinochloa crus-galli); assay: Test A preemergence, visual plant response rating; details: for Barnyardgrass plant response rating: 125 g ai/ha, preemergence, 0 to 100 scale, 0 no effect, 100 complete control; for Barnyardgrass plant response rating (0 to 100 scale): 500 g ai/ha Preemergence, approx. 10 days
Procedure, shortened: as §2

[9] = test system: foxtail, giant (giant foxtail, Setaria faberii); assay: Test A preemergence, visual plant response rating; details: for Foxtail, Giant plant response rating: 125 g ai/ha, preemergence, 0 to 100 scale, 0 no effect, 100 complete control; for Foxtail, Giant plant response rating (0 to 100 scale): 500 g ai/ha Preemergence, approx. 10 days
Procedure, shortened: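 Formulated in a non-phytotoxic solvent mixture including surfactant, each test chemical was sprayed onto the soil surface after sowing, or onto seedlings 2 to 10 cm high. Roughly 10 days later, plants were compared with untreated controls and rated for injury from 0 (no effect) to 100 (complete control).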

[10] = test system: Italian ryegrass (Lolium multiflorum); assay: Test A preemergence, visual plant response rating; details: for Ryegrass, Italian plant response rating: 125 g ai/ha, preemergence, 0 to 100 scale, 0 no effect, 100 complete control; for Ryegrass, Italian plant response rating (0 to 100 scale): 500 g ai/ha Preemergence, approx. 10 days
Procedure, shortened: as §2

[11] = test system: pigweed (Amaranthus retroflexus); assay: Test A postemergence, visual plant response rating; details: for Pigweed plant response rating (0 to 100 scale): 500 g ai/ha, postemergence, 0 is no effect, 100 is complete control; for Pigweed plant response rating: Postemergence, 125 g ai/ha, 0 to 100 scale (0 no effect, 100 complete control)
Procedure, shortened: as §2

[12] = test system: kochia (Kochia scoparia); assay: Test A postemergence, visual plant response rating; details: for Kochia plant response rating (0 to 100 scale): 500 g ai/ha, postemergence, 0 is no effect, 100 is complete control; for Kochia plant response rating: Postemergence, 125 g ai/ha, 0 to 100 scale (0 no effect, 100 complete control)
Procedure, shortened: as §2

[13] = test system: galium (catchweed bedstraw, Galium aparine); assay: Test A postemergence, visual plant response rating; details: for Galium plant response rating (0 to 100 scale): 500 g ai/ha, postemergence, 0 is no effect, 100 is complete control; for Galium plant response rating: Postemergence, 125 g ai/ha, 0 to 100 scale (0 no effect, 100 complete control)
Procedure, shortened: as §2

[14] = test system: corn (Zea mays); assay: Test A postemergence, visual plant response rating; details: for Corn plant response rating (0 to 100 scale): 500 g ai/ha, postemergence, 0 is no effect, 100 is complete control; for Corn plant response rating: Postemergence, 125 g ai/ha, 0 to 100 scale (0 no effect, 100 complete control)
Procedure, shortened: as §2

[15] = test system: ragweed (common ragweed, Ambrosia elatior); assay: Test A postemergence, visual plant response rating; details: for Ragweed plant response rating (0 to 100 scale): 500 g ai/ha, postemergence, 0 is no effect, 100 is complete control; for Ragweed plant response rating: Postemergence, 125 g ai/ha, 0 to 100 scale (0 no effect, 100 complete control)
Procedure, shortened: as §2

[16] = test system: barnyardgrass (Echinochloa crus-galli); assay: Test A postemergence, visual plant response rating; details: for Barnyardgrass plant response rating (0 to 100 scale): 500 g ai/ha, postemergence, 0 is no effect, 100 is complete control; for Barnyardgrass plant response rating: Postemergence, 125 g ai/ha, 0 to 100 scale (0 no effect, 100 complete control)
Procedure, shortened: as §2

[17] = test system: blackgrass (Alopecurus myosuroides); assay: Test A postemergence, visual plant response rating; details: for Blackgrass plant response rating (0 to 100 scale): 500 g ai/ha, postemergence, 0 is no effect, 100 is complete control; for Blackgrass plant response rating: Postemergence, 125 g ai/ha, 0 to 100 scale (0 no effect, 100 complete control)
Procedure, shortened: as §2

[18] = test system: wheat (Triticum aestivum); assay: Test A postemergence, visual plant response rating; details: for Wheat plant response rating (0 to 100 scale): 500 g ai/ha, postemergence, 0 is no effect, 100 is complete control; for Wheat plant response rating: Postemergence, 125 g ai/ha, 0 to 100 scale (0 no effect, 100 complete control)
Procedure, shortened: as §2

[19] = test system: foxtail, giant (giant foxtail, Setaria faberii); assay: Test A postemergence, visual plant response rating; details: for Foxtail, Giant plant response rating (0 to 100 scale): 500 g ai/ha, postemergence, 0 is no effect, 100 is complete control; for Foxtail, Giant plant response rating: Postemergence, 125 g ai/ha, 0 to 100 scale (0 no effect, 100 complete control)
Procedure, shortened: as §2

[20] = test system: Italian ryegrass (Lolium multiflorum); assay: Test A postemergence, visual plant response rating; details: for Ryegrass, Italian plant response rating (0 to 100 scale): 500 g ai/ha, postemergence, 0 is no effect, 100 is complete control; for Ryegrass, Italian plant response rating: Postemergence, 125 g ai/ha, 0 to 100 scale (0 no effect, 100 complete control)
Procedure, shortened: as §2

SMILES | Plant response rating, Sedge, Umbrella (0 to 100 scale, 0 is no effect, 100 is complete control) [1] | Plant response rating, Barnyardgrass (0 to 100 scale, 0 is no effect, 100 is complete control) [2] | Plant response rating, Rice (0 to 100 scale, 0 is no effect, 100 is complete control) [3] | Plant response rating, Ducksalad (0 to 100 scale, 0 is no effect, 100 is complete control) [4] | Pigweed plant response rating [5] | Pigweed plant response rating (0 to 100 scale) [5] | Kochia plant response rating [6] | Kochia plant response rating (0 to 100 scale) [6] | Ragweed plant response rating [7] | Ragweed plant response rating (0 to 100 scale) [7] | Barnyardgrass plant response rating [8] | Barnyardgrass plant response rating (0 to 100 scale) [8] | Foxtail, Giant plant response rating [9] | Foxtail, Giant plant response rating (0 to 100 scale) [9] | Ryegrass, Italian plant response rating (0 to 100 scale) [10] | Pigweed plant response rating (0 to 100 scale) [11] | Pigweed plant response rating [11] | Kochia plant response rating (0 to 100 scale) [12] | Kochia plant response rating [12] | Galium plant response rating (0 to 100 scale) [13] | further results
C=CCc1ccccc1C(=NOC)c1c(O)c(C)nn(C)c1=O [Compound 121] | 0 | 0 | 0 | 0 | 10 | 90 | 0 | 30 | 10 | 50 | 0 | 20 | 10 | 80 | 100 | 70 | 50 | 60 | 40 | 90 | Ryegrass, Italian plant response rating [10]: 50; Galium plant response rating [13]: 60; Corn plant response rating (0 to 100 scale) [14]: 10; Corn plant response rating [14]: 0; Ragweed plant response rating (0 to 100 scale) [15]: 70; Ragweed plant response rating [15]: 40; Barnyardgrass plant response rating (0 to 100 scale) [16]: 70; Barnyardgrass plant response rating [16]: 0; Blackgrass plant response rating (0 to 100 scale) [17]: 70; Blackgrass plant response rating [17]: 30; Wheat plant response rating (0 to 100 scale) [18]: 40; Wheat plant response rating [18]: 30; Foxtail, Giant plant response rating (0 to 100 scale) [19]: 60; Foxtail, Giant plant response rating [19]: 20; Ryegrass, Italian plant response rating (0 to 100 scale) [20]: 90; Ryegrass, Italian plant response rating [20]: 60
C=CCc1ccccc1C(=NOC)c1c(O)c(C)nn(C)c1=O [Compound 122] | 0 | 0 | 0 | 0 | 20 | 90 | 0 | 10 | 10 | 50 | 0 | 30 | 10 | 80 | 60 | 70 | 60 | 50 | 40 | 80 | Ryegrass, Italian plant response rating [10]: 50; Galium plant response rating [13]: 60; Corn plant response rating (0 to 100 scale) [14]: 10; Corn plant response rating [14]: 0; Ragweed plant response rating (0 to 100 scale) [15]: 60; Ragweed plant response rating [15]: 50; Barnyardgrass plant response rating (0 to 100 scale) [16]: 60; Barnyardgrass plant response rating [16]: 20; Blackgrass plant response rating (0 to 100 scale) [17]: 40; Blackgrass plant response rating [17]: 20; Wheat plant response rating (0 to 100 scale) [18]: 30; Wheat plant response rating [18]: 0; Foxtail, Giant plant response rating (0 to 100 scale) [19]: 70; Foxtail, Giant plant response rating [19]: 50; Ryegrass, Italian plant response rating (0 to 100 scale) [20]: 90; Ryegrass, Italian plant response rating [20]: 70
CON=C(c1cccc(C2CC2)c1)c1c(O)c(C)nn(C)c1=O [Compound 123] | 0 | 0 | 0 | 0 | 40 | 60 | 10 | 50 | 50 | 80 | 0 | 50 | 10 | 40 | 90 | 80 | 70 | 70 | 50 | 80 | Galium plant response rating [13]: 70; Corn plant response rating (0 to 100 scale) [14]: 0; Corn plant response rating [14]: 0; Ragweed plant response rating (0 to 100 scale) [15]: 90; Ragweed plant response rating [15]: 80; Barnyardgrass plant response rating (0 to 100 scale) [16]: 40; Barnyardgrass plant response rating [16]: 0; Blackgrass plant response rating (0 to 100 scale) [17]: 30; Blackgrass plant response rating [17]: 20; Wheat plant response rating (0 to 100 scale) [18]: 10; Wheat plant response rating [18]: 0; Foxtail, Giant plant response rating (0 to 100 scale) [19]: 60; Foxtail, Giant plant response rating [19]: 20; Ryegrass, Italian plant response rating (0 to 100 scale) [20]: 80; Ryegrass, Italian plant response rating [20]: 60
CO/N=C(\c1c(O)c(Cl)nn(C)c1=O)c1cccc2ccccc12 [Compound 129, 6-chloro-5-hydroxy-4-[(Z)-(methoxyimino)-1-naphthalenylmethyl]-2-methyl-3(2H)-pyridazinone] | 0 | 0 | 0 | 0 | 10 | 90 | 10 | 50 | 70 | 100 | 60 | 80 | 60 | 80 | 0 | 70 | 40 | 80 | 70 | 90 | Ryegrass, Italian plant response rating [10]: 0; Galium plant response rating [13]: 80; Corn plant response rating (0 to 100 scale) [14]: 0; Corn plant response rating [14]: 0; Ragweed plant response rating (0 to 100 scale) [15]: 100; Ragweed plant response rating [15]: 90; Barnyardgrass plant response rating (0 to 100 scale) [16]: 50; Barnyardgrass plant response rating [16]: 30; Blackgrass plant response rating (0 to 100 scale) [17]: 70; Blackgrass plant response rating [17]: 30; Wheat plant response rating (0 to 100 scale) [18]: 0; Wheat plant response rating [18]: 0; Foxtail, Giant plant response rating (0 to 100 scale) [19]: 60; Foxtail, Giant plant response rating [19]: 40; Ryegrass, Italian plant response rating (0 to 100 scale) [20]: 10; Ryegrass, Italian plant response rating [20]: 0
